Assay results published in ChEMBL document CHEMBL3991601, “The target landscape of clinical kinase drugs” (Science, 2017).
The source made the active and inactive calls. Cut-off read from the data, not from the text of the source, for most assays here: actives have a measured Kd and inactives only a lower limit.

How the values were obtained:
[1] = target: Cyclin-dependent kinase 1 (Homo sapiens, UniProt P06493)
[2] = target: T1, Ephrin type-B receptor 2 (Homo sapiens, UniProt P29323)
T1 sequence (P29323 whole entry): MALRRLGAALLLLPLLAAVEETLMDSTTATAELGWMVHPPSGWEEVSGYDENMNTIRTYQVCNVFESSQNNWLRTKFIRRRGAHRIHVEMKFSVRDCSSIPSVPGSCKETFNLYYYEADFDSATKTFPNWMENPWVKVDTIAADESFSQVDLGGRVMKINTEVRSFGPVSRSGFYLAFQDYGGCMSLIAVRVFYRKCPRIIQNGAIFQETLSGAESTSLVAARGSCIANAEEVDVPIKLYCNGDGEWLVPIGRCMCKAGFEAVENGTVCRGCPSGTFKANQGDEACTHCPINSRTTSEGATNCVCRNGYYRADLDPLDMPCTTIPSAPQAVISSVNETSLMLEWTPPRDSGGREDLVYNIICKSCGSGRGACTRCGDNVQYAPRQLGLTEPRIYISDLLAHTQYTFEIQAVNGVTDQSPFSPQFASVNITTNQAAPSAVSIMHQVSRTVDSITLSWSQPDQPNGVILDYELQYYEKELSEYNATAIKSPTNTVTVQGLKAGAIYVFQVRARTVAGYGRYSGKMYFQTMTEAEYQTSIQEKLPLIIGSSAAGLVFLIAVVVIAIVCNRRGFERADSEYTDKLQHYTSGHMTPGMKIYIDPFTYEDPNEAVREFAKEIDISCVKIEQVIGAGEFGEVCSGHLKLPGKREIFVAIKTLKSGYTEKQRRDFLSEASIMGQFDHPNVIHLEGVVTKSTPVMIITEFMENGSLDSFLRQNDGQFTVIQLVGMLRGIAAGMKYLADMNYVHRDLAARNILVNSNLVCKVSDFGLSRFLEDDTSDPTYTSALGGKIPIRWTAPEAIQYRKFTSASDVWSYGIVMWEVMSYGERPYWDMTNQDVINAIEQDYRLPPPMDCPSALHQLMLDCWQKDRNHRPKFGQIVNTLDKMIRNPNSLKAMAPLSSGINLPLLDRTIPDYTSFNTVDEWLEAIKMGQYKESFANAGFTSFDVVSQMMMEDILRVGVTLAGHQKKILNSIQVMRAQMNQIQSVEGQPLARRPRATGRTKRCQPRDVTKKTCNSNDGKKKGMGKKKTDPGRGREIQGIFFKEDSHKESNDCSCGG

[3] = target: T2, Dual specificity mitogen-activated protein kinase kinase 6 (Homo sapiens, UniProt P52564)
T2 sequence (P52564 whole entry): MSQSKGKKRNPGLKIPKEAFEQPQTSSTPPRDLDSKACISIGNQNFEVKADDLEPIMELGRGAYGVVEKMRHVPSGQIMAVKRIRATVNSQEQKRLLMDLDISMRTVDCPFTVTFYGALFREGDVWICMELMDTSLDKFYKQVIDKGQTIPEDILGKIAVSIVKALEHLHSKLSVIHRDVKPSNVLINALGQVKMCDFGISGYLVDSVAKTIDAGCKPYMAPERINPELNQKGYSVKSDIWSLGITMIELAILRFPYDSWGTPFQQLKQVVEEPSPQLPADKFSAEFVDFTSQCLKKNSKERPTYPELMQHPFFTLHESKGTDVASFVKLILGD

[4] = target: Mitogen-activated protein kinase kinase kinase 1 (Homo sapiens, UniProt Q13233)
[5] = target: MAP kinase-activated protein kinase 2 (Homo sapiens, UniProt P49137)
[6] = target: Maternal embryonic leucine zipper kinase (Homo sapiens, UniProt Q14680)
[7] = target: T3, Dynamin-like GTPase OPA1, mitochondrial (Homo sapiens, UniProt O60313)
T3 sequence (O60313 whole entry): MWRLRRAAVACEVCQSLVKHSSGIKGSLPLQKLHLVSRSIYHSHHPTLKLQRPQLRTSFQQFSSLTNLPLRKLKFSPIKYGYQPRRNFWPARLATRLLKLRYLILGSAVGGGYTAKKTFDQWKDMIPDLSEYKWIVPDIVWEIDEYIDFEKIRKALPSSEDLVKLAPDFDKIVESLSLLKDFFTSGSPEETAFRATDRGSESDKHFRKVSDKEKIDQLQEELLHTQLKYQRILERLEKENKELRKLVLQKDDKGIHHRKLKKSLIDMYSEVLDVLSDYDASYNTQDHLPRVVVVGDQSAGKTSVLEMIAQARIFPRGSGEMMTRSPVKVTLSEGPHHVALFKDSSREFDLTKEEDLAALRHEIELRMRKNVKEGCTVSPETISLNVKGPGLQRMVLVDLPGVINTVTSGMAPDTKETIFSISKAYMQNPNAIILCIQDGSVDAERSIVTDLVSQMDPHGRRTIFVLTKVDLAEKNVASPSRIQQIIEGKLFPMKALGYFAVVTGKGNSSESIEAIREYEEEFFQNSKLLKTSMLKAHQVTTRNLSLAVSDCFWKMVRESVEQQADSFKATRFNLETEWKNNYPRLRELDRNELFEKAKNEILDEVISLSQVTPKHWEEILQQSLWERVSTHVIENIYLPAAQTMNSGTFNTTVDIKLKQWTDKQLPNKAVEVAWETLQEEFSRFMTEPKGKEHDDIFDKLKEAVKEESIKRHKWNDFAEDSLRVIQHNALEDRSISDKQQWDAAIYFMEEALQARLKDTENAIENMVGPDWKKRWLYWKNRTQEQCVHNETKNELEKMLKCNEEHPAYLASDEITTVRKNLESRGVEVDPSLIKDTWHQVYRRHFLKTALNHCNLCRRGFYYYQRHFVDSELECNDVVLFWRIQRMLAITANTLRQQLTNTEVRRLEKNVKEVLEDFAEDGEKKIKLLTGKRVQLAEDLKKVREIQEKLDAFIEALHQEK

[8] = target: Serine/threonine-protein kinase N1 (Homo sapiens, UniProt Q16512)
[9] = target: Serine/threonine-protein kinase SIK2 (Homo sapiens, UniProt Q9H0K1)
[10] = target: STE20-like serine/threonine-protein kinase (Homo sapiens, UniProt Q9H2G2)
Note: in the data inactive means no Kd found up to 30 µM.

Sequence of MAP kinase-activated protein kinase 2 (P49137 whole entry): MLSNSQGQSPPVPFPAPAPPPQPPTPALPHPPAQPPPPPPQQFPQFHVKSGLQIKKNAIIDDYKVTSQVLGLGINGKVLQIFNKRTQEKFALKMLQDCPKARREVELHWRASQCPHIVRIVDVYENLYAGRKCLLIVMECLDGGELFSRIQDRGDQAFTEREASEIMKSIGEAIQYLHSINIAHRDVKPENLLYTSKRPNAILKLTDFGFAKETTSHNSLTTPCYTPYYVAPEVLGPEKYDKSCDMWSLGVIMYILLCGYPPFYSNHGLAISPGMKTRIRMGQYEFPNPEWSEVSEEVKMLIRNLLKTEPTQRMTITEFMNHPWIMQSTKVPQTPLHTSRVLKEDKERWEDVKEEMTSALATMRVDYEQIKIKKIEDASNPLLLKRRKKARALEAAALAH
Sequence of Cyclin-dependent kinase 1 (P06493 whole entry): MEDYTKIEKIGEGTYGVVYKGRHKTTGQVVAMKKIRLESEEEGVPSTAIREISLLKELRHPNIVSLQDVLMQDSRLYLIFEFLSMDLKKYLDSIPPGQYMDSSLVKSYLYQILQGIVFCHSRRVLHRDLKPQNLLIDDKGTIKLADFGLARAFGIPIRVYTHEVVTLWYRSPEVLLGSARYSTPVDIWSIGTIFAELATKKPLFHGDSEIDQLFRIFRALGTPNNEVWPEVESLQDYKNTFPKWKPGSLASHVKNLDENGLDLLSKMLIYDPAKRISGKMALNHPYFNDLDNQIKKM
Sequence of Maternal embryonic leucine zipper kinase (Q14680 whole entry): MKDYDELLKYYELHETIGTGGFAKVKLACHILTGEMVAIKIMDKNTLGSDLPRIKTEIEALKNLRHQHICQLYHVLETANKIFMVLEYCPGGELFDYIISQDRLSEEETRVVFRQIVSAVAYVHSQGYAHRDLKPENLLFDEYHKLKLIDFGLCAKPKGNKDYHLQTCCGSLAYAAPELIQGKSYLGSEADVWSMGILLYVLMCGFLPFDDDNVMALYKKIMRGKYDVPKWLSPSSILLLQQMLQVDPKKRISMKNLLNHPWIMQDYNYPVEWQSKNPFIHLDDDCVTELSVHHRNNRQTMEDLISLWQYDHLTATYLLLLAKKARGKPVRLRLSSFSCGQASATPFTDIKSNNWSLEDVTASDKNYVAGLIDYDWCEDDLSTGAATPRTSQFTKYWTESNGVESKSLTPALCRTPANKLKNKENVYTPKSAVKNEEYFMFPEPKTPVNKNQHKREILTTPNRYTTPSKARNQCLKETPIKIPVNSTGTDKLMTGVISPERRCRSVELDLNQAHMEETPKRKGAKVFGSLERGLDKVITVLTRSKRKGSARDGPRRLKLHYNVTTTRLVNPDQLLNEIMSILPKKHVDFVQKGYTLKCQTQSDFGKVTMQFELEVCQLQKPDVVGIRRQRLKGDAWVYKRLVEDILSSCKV
Sequence of Mitogen-activated protein kinase kinase kinase 1 (Q13233 whole entry): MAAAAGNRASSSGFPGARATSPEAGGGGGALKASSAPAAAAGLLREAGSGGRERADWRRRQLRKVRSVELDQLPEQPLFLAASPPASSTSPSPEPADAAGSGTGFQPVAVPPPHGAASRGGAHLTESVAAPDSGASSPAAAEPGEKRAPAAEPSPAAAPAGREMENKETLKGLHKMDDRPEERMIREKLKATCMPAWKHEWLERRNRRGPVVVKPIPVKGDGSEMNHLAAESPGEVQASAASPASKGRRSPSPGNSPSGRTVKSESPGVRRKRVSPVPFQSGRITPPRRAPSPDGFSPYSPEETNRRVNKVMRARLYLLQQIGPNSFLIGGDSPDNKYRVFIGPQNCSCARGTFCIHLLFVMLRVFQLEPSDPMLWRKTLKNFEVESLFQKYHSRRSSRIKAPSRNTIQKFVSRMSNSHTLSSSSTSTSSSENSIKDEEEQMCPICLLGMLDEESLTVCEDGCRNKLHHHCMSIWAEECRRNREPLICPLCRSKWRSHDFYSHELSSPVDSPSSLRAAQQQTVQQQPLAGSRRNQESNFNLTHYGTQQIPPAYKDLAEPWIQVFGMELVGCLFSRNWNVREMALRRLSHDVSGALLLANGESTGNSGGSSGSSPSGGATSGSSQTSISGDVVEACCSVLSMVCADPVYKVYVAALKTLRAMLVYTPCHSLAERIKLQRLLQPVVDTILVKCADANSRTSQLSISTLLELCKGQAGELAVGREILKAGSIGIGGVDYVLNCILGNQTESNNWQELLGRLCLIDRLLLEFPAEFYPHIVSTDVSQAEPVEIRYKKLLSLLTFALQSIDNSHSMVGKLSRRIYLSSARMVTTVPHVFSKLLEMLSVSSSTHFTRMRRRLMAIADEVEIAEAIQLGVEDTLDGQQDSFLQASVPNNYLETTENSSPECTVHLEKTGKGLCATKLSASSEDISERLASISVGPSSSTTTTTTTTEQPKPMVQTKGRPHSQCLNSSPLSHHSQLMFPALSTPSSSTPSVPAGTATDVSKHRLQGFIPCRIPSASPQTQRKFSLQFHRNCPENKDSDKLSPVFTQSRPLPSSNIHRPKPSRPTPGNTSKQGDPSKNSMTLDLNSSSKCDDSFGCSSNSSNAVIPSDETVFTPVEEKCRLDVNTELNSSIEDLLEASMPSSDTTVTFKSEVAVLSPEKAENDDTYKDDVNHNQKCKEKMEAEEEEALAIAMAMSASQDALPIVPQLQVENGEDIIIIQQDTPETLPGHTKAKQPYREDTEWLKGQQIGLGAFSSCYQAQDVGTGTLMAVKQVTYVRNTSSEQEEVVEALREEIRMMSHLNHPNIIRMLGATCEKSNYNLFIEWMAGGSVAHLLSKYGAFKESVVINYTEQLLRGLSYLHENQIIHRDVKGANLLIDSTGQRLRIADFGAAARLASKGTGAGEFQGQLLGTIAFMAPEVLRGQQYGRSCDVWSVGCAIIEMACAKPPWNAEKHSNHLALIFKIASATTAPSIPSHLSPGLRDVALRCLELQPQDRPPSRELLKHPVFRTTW
Sequence of STE20-like serine/threonine-protein kinase (Q9H2G2 whole entry): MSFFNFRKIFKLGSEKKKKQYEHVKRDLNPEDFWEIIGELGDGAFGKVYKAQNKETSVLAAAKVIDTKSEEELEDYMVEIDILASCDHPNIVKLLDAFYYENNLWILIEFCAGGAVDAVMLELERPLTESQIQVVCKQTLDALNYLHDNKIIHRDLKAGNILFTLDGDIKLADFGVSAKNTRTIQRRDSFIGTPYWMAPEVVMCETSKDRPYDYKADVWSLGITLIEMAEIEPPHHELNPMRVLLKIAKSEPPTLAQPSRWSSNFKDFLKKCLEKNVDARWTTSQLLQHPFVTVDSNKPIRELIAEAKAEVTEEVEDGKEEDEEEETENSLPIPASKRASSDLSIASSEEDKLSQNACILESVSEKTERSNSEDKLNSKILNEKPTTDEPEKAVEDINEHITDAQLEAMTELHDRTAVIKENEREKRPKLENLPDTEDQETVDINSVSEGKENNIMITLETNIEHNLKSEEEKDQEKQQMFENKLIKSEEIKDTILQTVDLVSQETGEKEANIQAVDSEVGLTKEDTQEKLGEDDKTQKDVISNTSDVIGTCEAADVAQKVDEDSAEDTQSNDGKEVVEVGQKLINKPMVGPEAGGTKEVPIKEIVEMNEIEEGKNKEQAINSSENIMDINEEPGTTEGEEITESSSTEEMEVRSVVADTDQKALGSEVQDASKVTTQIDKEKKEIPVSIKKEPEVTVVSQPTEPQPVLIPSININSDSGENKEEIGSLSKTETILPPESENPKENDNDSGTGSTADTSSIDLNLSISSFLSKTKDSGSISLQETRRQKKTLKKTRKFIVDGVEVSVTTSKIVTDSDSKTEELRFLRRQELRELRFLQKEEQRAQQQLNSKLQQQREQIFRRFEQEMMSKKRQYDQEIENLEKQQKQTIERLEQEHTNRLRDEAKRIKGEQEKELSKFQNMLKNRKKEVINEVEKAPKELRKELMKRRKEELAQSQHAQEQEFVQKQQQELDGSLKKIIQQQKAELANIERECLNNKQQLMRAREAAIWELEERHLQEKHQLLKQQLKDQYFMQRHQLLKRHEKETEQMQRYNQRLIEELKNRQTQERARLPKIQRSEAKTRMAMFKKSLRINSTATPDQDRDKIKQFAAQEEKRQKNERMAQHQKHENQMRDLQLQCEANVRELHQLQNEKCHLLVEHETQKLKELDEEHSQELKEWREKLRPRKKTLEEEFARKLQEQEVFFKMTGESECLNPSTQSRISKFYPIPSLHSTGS
Sequence of Serine/threonine-protein kinase SIK2 (Q9H0K1 whole entry): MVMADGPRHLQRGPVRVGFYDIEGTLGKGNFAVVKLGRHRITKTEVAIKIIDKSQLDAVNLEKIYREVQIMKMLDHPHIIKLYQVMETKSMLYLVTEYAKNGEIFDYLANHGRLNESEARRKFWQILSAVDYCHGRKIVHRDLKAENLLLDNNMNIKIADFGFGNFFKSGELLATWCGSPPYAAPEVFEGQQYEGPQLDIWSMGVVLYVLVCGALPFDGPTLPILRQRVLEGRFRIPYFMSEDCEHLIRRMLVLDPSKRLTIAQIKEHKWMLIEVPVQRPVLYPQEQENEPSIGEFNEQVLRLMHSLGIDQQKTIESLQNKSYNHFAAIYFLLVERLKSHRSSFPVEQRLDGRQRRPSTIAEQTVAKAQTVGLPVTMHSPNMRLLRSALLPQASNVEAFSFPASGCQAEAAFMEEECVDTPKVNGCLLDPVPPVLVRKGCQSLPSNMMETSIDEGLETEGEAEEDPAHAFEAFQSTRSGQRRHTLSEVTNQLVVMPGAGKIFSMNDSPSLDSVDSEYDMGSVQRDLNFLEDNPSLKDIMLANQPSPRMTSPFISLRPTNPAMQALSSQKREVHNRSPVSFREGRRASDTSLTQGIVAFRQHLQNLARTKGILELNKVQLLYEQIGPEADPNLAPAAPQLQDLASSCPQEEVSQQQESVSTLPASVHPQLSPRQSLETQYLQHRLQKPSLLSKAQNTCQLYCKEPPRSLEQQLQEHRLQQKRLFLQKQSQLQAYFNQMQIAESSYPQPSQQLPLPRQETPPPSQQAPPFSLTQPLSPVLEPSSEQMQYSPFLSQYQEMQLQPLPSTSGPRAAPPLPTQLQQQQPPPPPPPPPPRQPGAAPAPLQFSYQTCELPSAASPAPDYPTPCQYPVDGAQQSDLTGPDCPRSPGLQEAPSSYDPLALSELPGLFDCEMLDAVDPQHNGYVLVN

Structure (SMILES) | Kd [1] | Kd [2] | Kd [3] | Kd [4] | Kd [5] | Kd [6] | Kd [7] | Kd [8] | Kd [9] | Kd [10]
C[C@@H](NC(=O)c1ncnc(N)c1Cl)c1ncc(C(=O)Nc2cc(C(F)(F)F)c(Cl)cn2)s1 [TOVORAFENIB] | > 30 µM (inactive) | > 30 µM (inactive) | > 30 µM (inactive) | 2.09 µM (active) | > 30 µM (inactive) | > 30 µM (inactive) | > 30 µM (inactive) | > 30 µM (inactive) | > 30 µM (inactive) | > 30 µM (inactive)
Cc1cc(Nc2ncnc3ccc(NC4=NC(C)(C)CO4)cc23)ccc1Oc1ccn2ncnc2c1 [TUCATINIB] | > 30 µM (inactive) | > 30 µM (inactive) | > 30 µM (inactive) | > 30 µM (inactive) | > 30 µM (inactive) | > 30 µM (inactive) | > 30 µM (inactive) | > 30 µM (inactive) | > 30 µM (inactive) | > 30 µM (inactive)
Cn1ncc(Cl)c1-c1cc(C(=O)N[C@H](CN)Cc2ccc(F)c(F)c2)oc1Cl [UPROSERTIB] | > 30 µM (inactive) | > 30 µM (inactive) | > 30 µM (inactive) | > 30 µM (inactive) | > 30 µM (inactive) | 0.24 µM | > 30 µM (inactive) | 0.076 µM (active) | > 30 µM (inactive) | > 30 µM (inactive)
CN1C/C=C/CCOc2cccc(c2)-c2ccnc(n2)Nc2cccc(c2)C1 [ZOTIRACICLIB] | > 30 µM (inactive) | > 30 µM (inactive) | > 30 µM (inactive) | > 30 µM (inactive) | > 30 µM (inactive) | > 30 µM (inactive) | > 30 µM (inactive) | 1.69 µM (active) | > 30 µM (inactive) | 6.37 µM (active)

Results, then the compound that gave them:

Kd [1] | Kd [2] | Kd [3] | Kd [4] | Kd [5] | Kd [6] | Kd [7] | Kd [8] | Kd [9] | Kd [10] | Structure (SMILES)
> 30 µM (inactive) | 2.51 µM (active) | > 30 µM (inactive) | > 30 µM (inactive) | > 30 µM (inactive) | > 30 µM (inactive) | > 30 µM (inactive) | 0.011 µM (active) | 1.8 µM (active) | 0.138 µM (active) | CC(C)c1cc(CNc2nc(Nc3cc(C4CC4)[nH]n3)cc(N3CCN(C)CC3)n2)on1 [XL-228]
> 30 µM (inactive) | > 30 µM (inactive) | > 30 µM (inactive) | > 30 µM (inactive) | > 30 µM (inactive) | > 30 µM (inactive) | > 30 µM (inactive) | 0.253 µM (active) | > 30 µM (inactive) | > 30 µM (inactive) | C[C@@H](N)c1ccc(C(=O)Nc2ccnc3[nH]ccc23)cc1 [Y-39983]
